# Reference: US4401827A, “Novel acyl-derivatives of carnitine and process for their preparation” (Sigma-Tau, priority 1978, dated 1983)
# Read-outs that look alike come from different tables or passages of the source.
# Key:
# [1] = acute toxicity (tolerance) i.p. in mice, Weil method; conditions: mouse, in vivo, ip, Weil method (N = 5, K = 4)
# Text: The tolerance of the Acyl-carnitines of the formula (I), as well as their salts administered by intraperitoneal route was investigated in mice using the Weil Method (1).
# LD50, mg kg^-1 i.p. in mice,
# of some acyl derivatives of formula (1).
# Weil method (N = 5, K = 4)
# [2] = test system: rat's ventricle strip; experiment: antiarrhythmic effect, isolated rat ventricle strip test; conditions: for inhibition at 1 µM / activation at 1 µM: Rattus norvegicus, concentration 1·10^-6 M; for inhibition at 1 µM: decrease; for activation at 1 µM: increase
# Text: (2) M. Libonati and G. Segre, Archivio Italiano di Scienze Farmacologiche. Serie XIII, Vol. X, pag. 3, (1960)
# effect of some acyl derivatives (concentration 1 · 10^-6
# of the formula (1) on the rat's ventricle strip test.
# % variation versus basal value.
# [3] = test system: arrhythmia induced by Aconitine in mice; experiment: arrhythmia induced by Aconitine in mice; assay type: in vivo; conditions: for change in vivo at 150 mg/kg / change in vivo at 300 mg/kg / change in vivo at 75 mg/kg / change in vivo at 89 mg/kg / change in vivo at 40 mg/kg: Mus musculus, iv; for antiarrhythmic activity (in words): Aconitine, mice
# Description: The antiarrhythmic effect of the compounds was also investigated in mice according to the P. W. Nwangwu, T. Holcslow procedure (4). Using Aconitine (5 mg/ml) as arrhythmogenic agent, the changes in the cardiac rhythm of the animals were recorded and the onset time of initial arrhythmia and/or of ventricular tachycardia were used as End point.
# Antiarrhythmic agents display an increase in the latency time of initial ECG change.
# (4) P. W. Nvangvu, T. L. Holcslow, Arch. Int. Pharmacodyn. 229, 219 (1977)
# on the arrhythmia induced by Aconitine (5 γ/ml) in mice.
# % increase of the time to onset of initial cardiac arrythmia
# [4] = test system: plasma cholesterol, triglycerides and lipoproteins in rat; experiment: plasma cholesterol, triglycerides and lipoproteins in rat treated with olive oil; assay type: in vivo; conditions: for lipoproteic pattern altered due to oil administration (in words): rats, single treatment
# Description: In the rats the lipoproteic pattern altered due to an oil administration by gavage, was restored after a single treatment with d,l dipropyl ACAR; d,l ethyl exanoyl CAR; d,l 3 bromopropionyl CAR and d,l pyruvyl CAR.
# The effect of some acyl derivatives of formula (I) on plasma cholesterol,
# triglycerides and lipoproteins in rat
# treated with olive oil, 15 ml kg^-1 orally. Mean Values ± SEM
# Student "t" test .quadrature., Δ and indicate respectively a non
# significant difference, a P ≤ 1% and 1%.
# [5] = test system: rabbit hearts; experiment: cardiokinetic effect on isolated rabbit heart (Langendorff) after anoxia; conditions: equal concentrations in perfusion fluid, Student's t test versus controls
# Description: The cardiokinetic effect on isolated heart was also investigated as follows. Rabbit hearts isolated by the Langendorff method were perfused with oxygenized ringer solution at 38.2° C. The isometric contractions, electrocardiogram and coronary flow were recorded using a "Battaglia-Rangoni" polygraph. By removing the oxygen from the perfusion fluid, metabolic damage was induced in the cardiac muscle, up to an 80% reduction in the cardiac contractile force.
# Under these conditions of prolonged anoxia the aerobic glycolysis of the myocardium is slowed down, accompanied by the storage of acid catabolites due to both the accumulation of pyruvic acid and its conversion to lactic acid which cannot be utilized because of the depression of pyridine enzymes, such as LDH (lactodehydrogenase). This has repercussions on the anaerobic glycolysis affecting an ever increasing number of enzymes, accompanied by a progressive and increasingly critical exhaustion of the myocardium. Thus a whole series of cardiac muscle fatigue levels occurs which can be observed by the behavior of the examined parameters, namely the contractile force, coronary flow, heart rate and cardiac rhythm. As soon as the contractile force was reduced by 80%, the perfusion fluid was once again oxygenized either without adding other compounds (controls) or with the addition of the compounds under examination.
# Table 2 below gives the percentage values of the contractile force of the heart, showing a positive inotropic effect, calculated after 10 minutes from the interruption of the anoxic period (myocardial restoration).
# of some acyl derivatives of formula (I) on the contractile
# force of rabbit's heart. (Details are given in the text)
# [6] = read-out: maximed frequency (- %), % variation versus basal value
# [7] = read-out: whole excitability (- %), % variation versus basal value
# [8] = read-out: refractory period (+ %), % variation versus basal value
# [9] = read-out: rheobase (+ %), % variation versus basal value
# [10] = read-out: latency time increase % of controls, arrhythmias
# [11] = read-out: latency time increase % of controls, tachycardia
Compound,LD50 [1],"inhibition at 1 µM [2, 6]","inhibition at 1 µM [2, 7]","activation at 1 µM [2, 8]","activation at 1 µM [2, 9]","change in vivo at 150 mg/kg [3, 10]","change in vivo at 150 mg/kg [3, 11]","change in vivo at 300 mg/kg [3, 10]","change in vivo at 300 mg/kg [3, 11]",also measured
"C[N+](C)(C)CC(CC(=O)[O-])OC(=O)CCBr (racemic) [d,l 3-Br--propionyl CAR]",950 mg/kg,17.3%,39.7%,40.2%,26.1%,20%,10%,,,"Lipoproteins, VLDL ([4]; olive oil 15 ml kg^-1 orally, compound ip, mean ± SEM, N = 8, oil control 15.84 ± 1.53): 11.22 ± 1.22%; Lipoproteins, HDL ([4]; olive oil 15 ml kg^-1 orally, compound ip, mean ± SEM, N = 8, oil control 24.18 ± 2.15): 30.45 ± 2.87%; Lipoproteins, LDL ([4]; olive oil 15 ml kg^-1 orally, compound ip, mean ± SEM, N = 8, oil control 57.38 ± 2.25): 51.26 ± 2.49%; cholesterol ([4]; olive oil 15 ml kg^-1 orally, compound ip, mean ± SEM, N = 8, oil control 88.33 ± 2.96): 76.18 ± 3.02 mg/100 ml; triglycerides ([4]; olive oil 15 ml kg^-1 orally, compound ip, mean ± SEM, N = 8, oil control 213.66 ± 28.68): 123.48 ± 12.16 mg/100 ml; lipoproteic pattern altered due to oil administration (in words) [4]: restored"
"C[N+](C)(C)CC(CC(=O)[O-])OC(=O)CCCCl (racemic) [d,l 4-Cl--butyryl CAR]",850 mg/kg,60.2%,55.1%,38.3%,35.2%,,,20%,10%,antiarrhythmic properties (in words) ([2]; isolated rat ventricle method): most clear out antiarrhythmic properties
"C[N+](C)(C)CC(CC(=O)[O-])OC(=O)Cc1ccc2ccccc2c1 (racemic) [d,l naphtalene ACAR]",880 mg/kg,41.2%,40.1%,39.3%,41.2%,,,,,"change in vivo at 75 mg/kg [3, 10]: 25%; change in vivo at 75 mg/kg [3, 11]: 10%"
"C=C[C@H]1C[N@@]2CC[C@H]1C[C@@H]2[C@@H](O)c1ccnc2ccc(OC)cc12 [Quinidine, reference compound]",,72.5%,191%,57.4%,51.2%,,,,,"change in vivo at 89 mg/kg [3, 10]: 50%; change in vivo at 89 mg/kg [3, 11]: 41.7%"
C[N+](C)(C)C[C@@H](CC(=O)[O-])OC(=O)C=Cc1cccc(C(F)(F)F)c1 [l trifluoromethylcinnamoyl CAR],540 mg/kg,32.7%,60.5%,40.1%,39.2%,,,,,"change in vivo at 40 mg/kg [3, 10]: 60%; change in vivo at 40 mg/kg [3, 11]: 45%"
"CCC(CC)C(=O)OC(CC(=O)[O-])C[N+](C)(C)C (racemic) [d,l diethyl ACAR]",1200 mg/kg,25.1%,27.5%,31.2%,20.6%,,,25%,32%,
"C[N+](C)(C)CC(CC(=O)[O-])OC(=O)CCC1CCCCC1 (racemic) [d,l cyclohexylpropionyl CAR]",955 mg/kg,45.3%,25.5%,12.5%,22.4%,70%,55%,,,antiarrhythmic activity (in words) [3]: markedly exhibited
"CC(C)(C)C(=O)OC(CC(=O)[O-])C[N+](C)(C)C (racemic) [d,l pivaloyl CAR]",855 mg/kg,58.4%,65.5%,40.6%,40.2%,,,20%,10%,
CC(C)(C)C(=O)O[C@H](CC(=O)[O-])C[N+](C)(C)C [l pivaloyl CAR],618 mg/kg,60.4%,48.1%,38.3%,35.1%,,,25%,15%,
"C[N+](C)(C)CC(CC(=O)[O-])OC(=O)C=Cc1ccc(Cl)cc1 (racemic) [d,l p-chlorocinnamoyl CAR]",935 mg/kg,25.1%,22.2%,22.3%,20.4%,,,25%,10%,
C[N+](C)(C)CC(CC(=O)[O-])OC(=O)CCBr (centres unmarked) [bromopropionyl],,,,,,,,,,positive inotropic effect (in words) [5]: greater positive inotropic effect than that of the other compounds under examination
CCCC(CCC)C(=O)O[C@@H](CC(=O)[O-])C[N+](C)(C)C [d dipropyl ACAR],1600 mg/kg,22.4%,25.5%,38.3%,21.7%,,,,,"change in vivo at 40 mg/kg [3, 10]: 50%; change in vivo at 40 mg/kg [3, 11]: 30%"
"C[N+](C)(C)CC(CC(=O)[O-])OC(=O)C=Cc1cccc(Br)c1 (racemic) [d,l m-bromocinnamoyl CAR]",650 mg/kg,28.5%,50.4%,45.2%,38.1%,40%,28%,,,
"Cc1ccc(C=CC(=O)OC(CC(=O)[O-])C[N+](C)(C)C)cc1 (racemic) [d,l p-methylcinnamoyl CAR]",620 mg/kg,38.6%,71.1%,45.3%,32.4%,20%,9%,,,
"C[N+](C)(C)CC(CC(=O)[O-])OC(=O)C1CCCCC1 (racemic) [d,l cyclohexyl CAR]",850 mg/kg,22.1%,26.4%,15.8%,18.2%,,,50%,38%,
C[N+](C)(C)C[C@@H](CC(=O)[O-])OC(=O)CCBr [l 3-Br--propionyl CAR],960 mg/kg,50.5%,60.2%,45.1%,42.4%,25%,12%,,,
"COc1ccc(C=CC(=O)OC(CC(=O)[O-])C[N+](C)(C)C)cc1 (racemic) [d,l p-methoxycinnamoyl CAR]",440 mg/kg,22.2%,31.5%,36.1%,22.2%,70%,56%,,,antiarrhythmic activity (in words) [3]: markedly exhibited
"CC(C)Cc1ccc(CC(=O)OC(CC(=O)[O-])C[N+](C)(C)C)cc1 (racemic) [d,l p-isobutyl phenyl ACAR]",378 mg/kg,38.2%,35.2%,22.5%,22.2%,,,20%,10%,
"C[N+](C)(C)CC(CC(=O)[O-])OC(=O)C=Cc1cccc(C(F)(F)F)c1 (racemic) [d,l trifluoromethylcinnamoyl CAR]",845 mg/kg,41.3%,24.3%,25.7%,19.5%,,,,,"change in vivo at 40 mg/kg [3, 10]: 50%; change in vivo at 40 mg/kg [3, 11]: 30%"
"CCCCC(CC)C(=O)OC(CC(=O)[O-])C[N+](C)(C)C (racemic) [d,l 2-ethylhexanoyl CAR]",950 mg/kg,25.5%,40.3%,22.8%,21.8%,,,20%,10%,lipoproteic pattern altered due to oil administration (in words) [4]: restored
